From BindingDB's records for doi:10.1021/np500198g (University of Tuebingen, 2014) come the findings set out here.

This assay concerns the target T1, Prostaglandin G/H synthase 2 (Homo sapiens, UniProt P35354).
T1 sequence (P35354 whole entry): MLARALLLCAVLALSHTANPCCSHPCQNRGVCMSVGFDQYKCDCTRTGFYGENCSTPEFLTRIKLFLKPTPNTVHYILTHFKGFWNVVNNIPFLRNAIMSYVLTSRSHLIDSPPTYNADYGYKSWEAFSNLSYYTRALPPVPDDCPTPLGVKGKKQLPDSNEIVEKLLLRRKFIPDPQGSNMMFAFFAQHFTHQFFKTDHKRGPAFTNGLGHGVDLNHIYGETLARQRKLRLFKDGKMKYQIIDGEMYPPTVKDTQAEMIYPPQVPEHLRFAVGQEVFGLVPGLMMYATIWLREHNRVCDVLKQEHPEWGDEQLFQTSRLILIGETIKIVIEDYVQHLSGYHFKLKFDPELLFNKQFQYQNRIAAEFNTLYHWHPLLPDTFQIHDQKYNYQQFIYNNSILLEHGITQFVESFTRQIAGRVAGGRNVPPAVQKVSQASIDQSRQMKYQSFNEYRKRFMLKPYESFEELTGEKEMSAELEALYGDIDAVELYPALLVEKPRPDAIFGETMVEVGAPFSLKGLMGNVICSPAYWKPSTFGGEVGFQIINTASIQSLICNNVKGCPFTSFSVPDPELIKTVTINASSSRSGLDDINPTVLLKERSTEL
Description: Inhibition of human recombinant COX-2 using arachidonic acid as substrate preincubated for 5 mins followed by substrate addition measured after 5 mins by HPLC analysis.

As usually defined, the IC50 is the midpoint of a concentration-inhibition curve. For `CC(C)=CCC[C@H](C(=O)O)[C@@H]1CC[C@]2(C)C3=C(CC[C@@]12C)[C@@]1(C)CC[C@@H](O)C(C)(C)[C@@H]1CC3`, the half-maximal inhibitory concentration (IC50) is over 10 µM.
